Assay results taken from US20060019907A1, “Guggulsterone: an inhibitor of nuclear factor - kappaB and IkappaBalpha kinase activation and uses thereof” (Research Development Foundation, priority 2004, published 2006).

Tests used:
IKK = assay: TNF-induced IKK activation, immune complex kinase assay; assay type: cell-based, human; conditions: H1299
Method: IKK Assay: To determine the effect of guggulsterone on TNF-induced IKK activation, IKK was analyzed by a method essentially as described previously (Shishodia et al., 2003). Briefly, IKK complex was precipitated from whole-cell extracts with antibody to IKKα and IKKβ, assayed in kinase assay using GST-IκBα (1-54) as a substrate, and resolved on 10% polyacrylamide gel; the radioactive bands were visualized using a PHOSPHORIMAGER™. To determine the total amounts of IKKα and IKKβ in each sample, 30 μg of the whole-cell extract protein was resolved on a 7.5% polyacrylamide gel and analyzed by Western blot using antibody against IKKα and IKKβ.

p65 = assay: TNF-induced phosphorylation and nuclear translocation of p65; assay type: cell-based, human; conditions: H1299, 50 μM, 4 hours, 0.1 nM TNF
Method: Western Blot Analysis: To determine the effect of guggulsterone on TNF-dependent IκBα phosphorylation, IκBα degradation, p65 translocation and p65 phosphorylation, cytoplasmic extracts were prepared as previously described (Majumdar et al., 2001) from H1299 (2×10^6/ml) pretreated with 50 μM guggulsterone for 4 h and then exposed to 0.1 nM TNF for various times. Thirty micrograms of cytoplasmic protein was resolved on 10% SDS-PAGE gel, transferred to a nitrocellulose membrane, blocked with 5% non-fat milk, and probed with specific antibody against IκBα, posphorylated IκBα, p65 and phosphorylated p65. To determine the expression of cyclin D1, COX-2, MMP-9, clAP-1, xlAP, TRAF1, Bcl-2, Bfl-1, cFLIP, and survivin, whole-cell extracts were prepared from treated cells (2×10^6 cells in 2 ml medium), 30-50 μg protein was resolved on SDS-PAGE gel and probed by Western blot with specific antibodies as per manufacturer's recommended protocol. The blots were washed, exposed to HRP-conjugated secondary antibodies for 1 hour, and finally detected by ECL reagent (Amersham Pharmacia Biotech.). The bands were quantitated using a Personal Densitometer Scan v1.30 using IMAGEQUANT™ software version 3.3 (Molecular Dynamics).
Immunolocalization of NF-κB p65: The effect of guggulsterone on […] nuclear translocation of p65 was examined using an immunocytochemical method as described previously (Bharti et al., 2003). Stained slides were mounted with mounting medium (Sigma Chemical) and analyzed under an epifluorescence microscope (Labophot-2; Nikon, Tokyo, Japan). Images were captured using a PHOTOMETRICS COOLSNAP CF™ color camera (Nikon, Lewisville, Tex.) and METAMORPH™ version 4.6.5 software (Universal Imaging, Downingtown, Pa.).

IκBα = assay: RANKL-induced IκBα phosphorylation and degradation, Western blot; assay type: cell-based, mouse; conditions: RAW 264.7
Method: Western blot analysis. To determine the levels of protein expression in the cytoplasm or nucleus, extracts were prepared (Majumder and Aggarwal, 2001) and fractionated by SDS-polyacrylamide gel electrophoresis (PAGE). After electrophoresis, the proteins were electrotransferred to nitrocellulose membranes, blotted with each antibody, and detected by ECL regent (Amersham, Piscataway, N.J.). The bands obtained were quantitated using NIH imaging software (NIH, Bethesda, Md.).

STAT3 = assay: Constitutive STAT3 phosphorylation in U266 cells, Western blot; assay type: cell-based, human
Method: Western blot. For detection of STAT proteins, whole-cell extracts were prepared by lysing the guggulsterone-treated cells in lysis buffer (20 mM Tris, pH 7.4, 250 mM NaCl, 2 mM EDTA, pH 8.0, 0.1% Triton −X100, 0.01 mg/ml aprotinin, 0.005 mg/ml leupeptin, 0.4 mM PMSF, and 4 mM NaVO4). Lysates were then spun at 14,000 rpm for 10 min to remove insoluble material, and resolved on a 7.5% gel. After electrophoresis, the proteins were electrotransferred to a nitrocellulose membrane, blocked with 5% nonfat milk, and probed with anti-STAT antibodies (1:1000) overnight at 4° C. The blot was washed, exposed to HRP-conjugated secondary antibodies for 1 h, and finally examined by chemiluminescence (ECL, Amersham Pharmacia Biotech. Arlington Heights, Ill.).

[1] = humans; cited from earlier work
[2] = 50 μM, 4 h pre-incubation, 10 nM RANKL

For `CC=C1C(=O)C[C@H]2[C@@H]3CCC4=CC(=O)CC[C@]4(C)[C@H]3CC[C@]12C` [guggulsterone, 4,17(20)-pregnadiene-3,16-dione], the “TNF-induced IKK activation” value (IKK; 50 μM, 4 h, 0.1 nM TNF) was “completely suppressed this activation”, the “expression of IKKα and IKKβ proteins” value (IKK; whole cell extracts, immunoblot) was “had no direct effect on the expression of either IKKα” and the “TNF-induced nuclear translocation of p65, Western blot” value (p65) was “abolished the TNF-induced nuclear translocation of p65”. The “TNF-induced nuclear translocation of p65, immunocytochemistry” value (p65) was “abrogated the p65 translocation”, the “TNF-induced phosphorylation of p65” value (p65; Western blot) was “suppressed p65 phosphorylation almost completely” and the “phosphorylation of IκBα by GS alone” value (IκBα) was “did not result in phosphorylation of IκBα”. For the same compound, the “RANKL-induced IκBα degradation” value (IκBα; [2]) was “suppressed RANKL-induced IκBα degradation”, the “RANKL-induced phosphorylation of IκBα” value (IκBα; [2]) was “eliminated the RANKL-induced phosphorylation” and the “expression of IκBα (IκBα to β-actin ratio)” value (IκBα; GS treatment) was “down-regulates the expression of IκBα”. The “overall expression of STAT3 protein” value (STAT3) was “did not alter the overall expression of STAT3 protein”, the “earliest time at which inhibition of constitutive STAT3 phosphorylation is observed” value (STAT3; 25 μM) was 4 h and the “lowest concentration at which inhibition of constitutive STAT3 phosphorylation is observed” value (STAT3; 4 h) was 25 µM. The “constitutively active (phosphorylated) STAT3” value (STAT3; time- and dose-dependent) was “inhibited the constitutively active STAT3” and the pharmacological safety [1] was “pharmacologically safe agent in humans”.
